According to patent publication EP4631938A1, “NITROGEN-CONTAINING HETEROCYCLE WITH SEROTONIN RECEPTOR-BINDING ACTIVITY AND CARBOCYCLIC DERIVATIVE” (Shionogi & Co., Ltd, priority 2022, dated 2024):

How the values were obtained:
[1] = molecular target: T1, human recombinant 5-HT2A receptor (Homo sapiens, UniProt P28223); assay: Test Example 1-2: 5-HT2A receptor binding inhibition test ([3H]-Ketanserin; non-specific ligand Ketanserin); conditions: [3H]-Ketanserin; non-specific binding with 500 µmol/L Ketanserin; room temperature (25°C), 1.5 hours; read-out: h 5-HT2A Ki
T1 construct: expressed in transfected cells; host or cells: Jump-In HEK cells (membrane preparation)
T1 sequence (P28223 whole entry): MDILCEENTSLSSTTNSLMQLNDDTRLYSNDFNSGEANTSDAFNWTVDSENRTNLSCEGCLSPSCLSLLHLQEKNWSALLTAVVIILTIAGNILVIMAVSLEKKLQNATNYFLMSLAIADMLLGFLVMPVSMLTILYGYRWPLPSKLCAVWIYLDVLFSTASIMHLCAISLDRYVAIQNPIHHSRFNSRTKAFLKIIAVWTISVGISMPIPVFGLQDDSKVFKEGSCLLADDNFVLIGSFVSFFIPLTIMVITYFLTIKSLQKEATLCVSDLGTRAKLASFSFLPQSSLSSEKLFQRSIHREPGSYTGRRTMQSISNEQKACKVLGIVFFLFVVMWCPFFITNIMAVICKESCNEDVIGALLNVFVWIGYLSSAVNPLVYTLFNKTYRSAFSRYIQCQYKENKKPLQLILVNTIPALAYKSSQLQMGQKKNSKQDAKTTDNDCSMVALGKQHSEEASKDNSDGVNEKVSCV
Outline: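 Membranes expressing the receptor were incubated with [3H]-ketanserin and compound for 1.5 h at 25 °C, then filtered onto plates presoaked in 50 mmol/L Tris-HCl pH 7.4 and scintillation-counted. Non-specific binding was defined with 500 µmol/L unlabeled ketanserin. Ki was taken from dose-response curves, with Kd set for each membrane lot by Scatchard analysis.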

[2] = molecular target: T2, human recombinant 5-HT2C receptor (Homo sapiens, UniProt P28335); assay: Test Example 2: 5-HT2C receptor binding inhibition test ([3H]-Mesulergine; non-specific ligand Serotonin HCl); conditions: human serotonin 5-HT2C receptor binding activity
T2 construct: expressed in transfected cells; host or cells: Jump-In HEK cells (membrane preparation)
T2 sequence (P28335 33-458): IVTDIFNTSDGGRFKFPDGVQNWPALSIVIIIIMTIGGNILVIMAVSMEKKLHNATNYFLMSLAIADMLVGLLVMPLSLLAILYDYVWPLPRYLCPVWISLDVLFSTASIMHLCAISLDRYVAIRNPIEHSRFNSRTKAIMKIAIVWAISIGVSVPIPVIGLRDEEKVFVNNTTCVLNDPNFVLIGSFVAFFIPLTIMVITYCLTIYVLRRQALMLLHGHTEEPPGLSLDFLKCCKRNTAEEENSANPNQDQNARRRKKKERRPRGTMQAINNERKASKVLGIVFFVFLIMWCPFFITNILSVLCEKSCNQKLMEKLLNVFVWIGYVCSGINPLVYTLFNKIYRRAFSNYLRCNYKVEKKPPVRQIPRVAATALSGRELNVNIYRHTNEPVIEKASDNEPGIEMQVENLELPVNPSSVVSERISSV
Outline: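 Filtration binding to membranes bearing human 5-HT2C with [3H]-mesulergine, 2 h at 37°C; non-specific binding defined with 500 µmol/L serotonin HCl, total binding with vehicle. Inhibition rate computed from cpm; Ki derived from dose-response curve, with ligand Kd from Scatchard analysis of saturation binding.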

Row | SMILES | Ki [1] [nM] | Ki [2] [nM]
1 | Cc1nc(C)c(-c2cc(Nc3ncc(-c4ccc(F)cc4)cc3F)ncc2OCCO)c(C)n1 [Compound I-316] | 0.506 | 0.864
2 | Cc1nc(C)c(-c2cc(Nc3ncc(-c4ccc(F)cc4)cc3C)ncc2OCCO)c(C)n1 [Compound I-318] | 0.575 | 1.04
3 | Cn1ncc(Cl)c1-c1cc(Nc2ncc(OCC(F)F)cc2F)ncc1OCCO [Compound I-321] | 0.305 | 3.63
4 | COCc1nc(C)c(-c2cc(Nc3ncc(Br)cc3Cl)ncc2OCCO)c(C)n1 [Compound I-323] | 2.14 | 2.81
5 | COCc1nc(C)c(-c2cc(Nc3ccc(OCc4ccccc4)cn3)ncc2OCCO)c(C)n1 [Compound I-324] | 0.421 | 8.52
6 | COCc1nc(C)c(-c2cc(Nc3ncc(-c4ccn(C(F)F)n4)cc3Cl)ncc2OCCO)c(C)n1 [Compound I-326] | 6.26 | 7.23
7 | COCc1nc(C)c(-c2cc(Nc3ncc(-n4cc(C(F)F)cn4)cc3Cl)ncc2OCCO)c(C)n1 [Compound I-327] | 2.4 | 2.69
8 | COCc1nc(C)c(-c2cc(Nc3ncc(-c4nc(C(F)(F)F)cs4)cc3Cl)ncc2OCCO)c(C)n1 [Compound I-328] | 1.1 | 0.499
9 | COCc1nc(C)c(-c2cc(Nc3ncc(-c4ncc(C(F)(F)F)s4)cc3Cl)ncc2OCCO)c(C)n1 [Compound I-329] | 0.896 | 0.282
10 | COCc1nc(C)c(-c2nc(Nc3ccc(C(F)(F)F)cn3)c(F)cc2OCCO)c(C)n1 [Compound I-334] | 3.49 | 9.69
11 | COCc1nc(C)c(-c2cc(Nc3ncc(-c4ncc(C)s4)cc3Cl)ncc2OCCO)c(C)n1 [Compound I-335] | 1.18 | 1.87
12 | Cn1ncc(Br)c1-c1nc(Nc2ccc(C(F)(F)F)cn2)ncc1OCCO [Compound I-337] | 0.313 | 7.18
13 | Cn1ncc(Br)c1-c1nc(Nc2ccc(C(F)(F)F)cc2F)ncc1OCCO [Compound I-338] | 0.223 | 0.765
14 | Cc1cc(Cl)cnc1Nc1ccc(OCCO)c(-c2c(Br)cnn2C)c1 [Compound I-341] | 0.303 | 0.14
15 | Cn1ncc(Br)c1-c1nc(Nc2ccc(Cl)cc2Cl)ncc1OCCO [Compound I-342] | 0.256 | 1.88
16 | Cn1ncc(Br)c1-c1nc(Nc2ccc(Cl)c(Cl)c2)ncc1OCCO [Compound I-344] | 0.26 | 6.63
17 | Cn1ncc(Br)c1-c1nc(Nc2ccc(Cl)c(F)c2)ncc1OCCO [Compound I-345] | 0.257 | 3.12
18 | Cc1cc(Nc2ncc(OCCO)c(-c3c(Br)cnn3C)n2)ccc1Cl [Compound I-348] | 0.215 | 6.11
19 | Cn1ncc(Br)c1-c1nc(Nc2ccc(C(F)(F)F)c(Cl)c2)ncc1OCCO [Compound I-351] | 0.242 | 1.77
20 | Cn1ncc(Br)c1-c1nc(Nc2ccc(OC(F)F)cc2)ncc1OCCO [Compound I-353] | 0.179 | 0.975
21 | Cn1ncc(Br)c1-c1nc(Nc2ccc(C#N)cc2F)ncc1OCCO [Compound I-354] | 0.319 | 8.53
22 | O=C1NCc2c1cccc2-c1cc(Nc2ncc(C(F)(F)F)cc2F)ncc1OCCO [Compound I-358] | 0.603 | 5.78
23 | Cc1nc(C)c(-c2cc(Nc3ncc(C(F)(F)F)cc3F)ncc2O[C@H](C)CO)c(C)n1 [Compound I-361] | 2.4 | 18.3
24 | C[C@H](CO)Oc1cnc(Nc2ncc(C(F)(F)F)cc2F)cc1-c1cccc2c1CNC2=O [Compound I-362] | 0.924 | 25.2
25 | Cc1nc(C)c(-c2nc(Nc3ccc(-c4ccc(C(F)(F)F)nc4)cn3)c(F)cc2OCCO)c(C)n1 [Compound I-363] | 2.32 | 2.76
26 | CCc1ncccc1-c1cc(Nc2ncc(C(F)(F)F)cc2F)ncc1OCCO [Compound I-367] | 1.97 | 64.9
27 | O=C1NCc2c1cncc2-c1cc(Nc2ncc(C(F)(F)F)cc2F)ncc1OCCO [Compound I-368] | 2.13 | 51.2
28 | COC(=O)c1ccc(-c2cc(Nc3ncc(C(F)(F)F)cc3F)ncc2OCCO)c(C)c1 [Compound I-370] | 1.03 | 86.8
29 | CNC(=O)c1cnc(C)c(-c2cc(Nc3ncc(C(F)(F)F)cc3F)ncc2OCCO)c1 [Compound I-371] | 2.37 | 61.5
30 | Cc1cc(CO)ccc1-c1cc(Nc2ncc(C(F)(F)F)cc2F)ncc1OCCO [Compound I-372] | 0.847 | 9.14

Further compounds by falling Ki [1], results first:

Row | Ki [1] [nM] | Ki [2] [nM] | SMILES
31 | 9.02 | 4.19 | COCc1nc(C)c(-c2cc(Nc3ncc(OCC(F)(F)C(F)F)cc3Cl)ncc2OCCO)c(C)n1 [Compound I-333]
32 | 5.58 | 3.12 | COCc1nc(C)c(-c2cc(Nc3ncc(OC4CC(F)(F)C4)cc3Cl)ncc2OCCO)c(C)n1 [Compound I-332]
33 | 4.65 | 1.98 | COCc1nc(C)c(-c2nc(Nc3ccc(-c4ccc(C(F)(F)F)nc4)cn3)c(F)cc2OCCO)c(C)n1 [Compound I-365]
34 | 3.34 | 12.2 | Cc1nc(C)c(-c2nc(Nc3ccc(-c4ccc(C(F)(F)F)nc4)cn3)c(F)cc2O[C@H](C)CO)c(C)n1 [Compound I-364]
35 | 2.19 | 59.1 | OCCOc1cnc(Nc2ncc(C(F)(F)F)cc2F)cc1-c1cccnc1C(F)F [Compound I-366]
36 | 1.91 | 1.66 | CCc1coc(-c2cnc(Nc3cc(-c4c(C)nc(COC)nc4C)c(OCCO)cn3)c(Cl)c2)n1 [Compound I-331]
37 | 1.74 | 1.78 | COCc1nc(C)c(-c2cc(Nc3ncc(-n4ccc(Cl)n4)cc3Cl)ncc2OCCO)c(C)n1 [Compound I-330]
38 | 1.72 | 58.2 | COC(=O)c1ccc(C)c(-c2cc(Nc3ncc(C(F)(F)F)cc3F)ncc2OCCO)c1 [Compound I-369]
39 | 1.6 | 1.17 | COCc1nc(C)c(-c2cc(Nc3ncc(-n4ccc(C(F)(F)F)n4)cc3Cl)ncc2OCCO)c(C)n1 [Compound I-325]
40 | 1.22 | 54.8 | O=C1OCc2c1cccc2-c1cc(Nc2ncc(C(F)(F)F)cc2F)ncc1OCCO [Compound I-360]
41 | 1.21 | 1.05 | Cc1nc(C)c(-c2cc(Nc3ccc(-c4ccc(C(F)(F)F)nc4)cn3)ncc2OCCO)c(C)n1 [Compound I-315]
42 | 1.21 | 64.7 | Cc1ccc(CO)cc1-c1cc(Nc2ncc(C(F)(F)F)cc2F)ncc1OCCO [Compound I-373]
43 | 0.955 | 1.8 | Cc1nc(COC2CC2)nc(C)c1-c1cc(Nc2ncc(C(F)(F)F)cc2Cl)ncc1OCCO [Compound I-374]
44 | 0.65 | 2.02 | Cc1nc(C)c(-c2cc(Nc3ncc(-c4ccc(C(F)(F)F)cc4)cn3)ncc2OCCO)c(C)n1 [Compound I-319]
45 | 0.635 | 3.07 | Cc1nc(C)c(-c2nc(Nc3ccc(OC(F)(F)F)cc3)ncc2OCCO)c(C)n1 [Compound I-357]
46 | 0.453 | 6.92 | Cc1nc(C)c(-c2cc(Nc3ccc(-c4ccc(F)cc4)cn3)ncc2O[C@H](C)CO)c(C)n1 [Compound I-317]
47 | 0.414 | 1.3 | Cn1ncc(Cl)c1-c1cc(Nc2ncc(OCC(F)(F)F)cc2F)ncc1OCCO [Compound I-322]
48 | 0.398 | 8.2 | Cc1cc(C#N)ccc1Nc1ncc(OCCO)c(-c2c(Br)cnn2C)n1 [Compound I-355]
49 | 0.297 | 7.91 | Cn1ncc(Cl)c1-c1cc(Nc2ccc(OCC(F)F)cn2)ncc1OCCO [Compound I-320]
50 | 0.262 | 1.08 | Cn1ncc(Br)c1-c1nc(Nc2ccc(OC(F)(F)F)cc2)ncc1OCCO [Compound I-347]
51 | 0.254 | 47.7 | Cn1ncc(Br)c1-c1nc(Nc2ccc(C(F)(F)F)nc2)ncc1OCCO [Compound I-349]
52 | 0.24 | 1.7 | Cc1cc(OC(F)(F)F)ccc1Nc1ncc(OCCO)c(-c2c(Br)cnn2C)n1 [Compound I-346]
53 | 0.226 | 0.748 | Cn1ncc(Br)c1-c1nc(Nc2ccc(C(F)(F)F)cc2)ncc1OCCO [Compound I-336]
54 | 0.217 | 2.52 | Cn1ncc(Br)c1-c1nc(Nc2ccc(Cl)cc2)ncc1OCCO [Compound I-339]
55 | 0.212 | 1.38 | Cn1ncc(Br)c1-c1nc(Nc2ccc(Cl)cc2F)ncc1OCCO [Compound I-340]
56 | 0.204 | 6.51 | Cn1ncc(Br)c1-c1nc(Nc2ccc(Cl)c(C(F)(F)F)c2)ncc1OCCO [Compound I-350]
57 | 0.202 | 5.99 | Cn1ncc(Br)c1-c1nc(Nc2ccc(C#N)cc2)ncc1OCCO [Compound I-352]
58 | 0.184 | 2.42 | Cc1cc(Cl)ccc1Nc1ncc(OCCO)c(-c2c(Br)cnn2C)n1 [Compound I-343]
59 | 0.163 | 7.79 | Cc1cnn(C)c1-c1nc(Nc2ccc(OC(F)(F)F)cc2)ncc1OCCO [Compound I-356]
